From ChEMBL document CHEMBL1268837, “Novel CGRP receptor antagonists from central amide replacements causing a reversal of preferred chirality” (Bioorg Med Chem Lett, 2010) come the findings set out here.

In general, Ki refers to the equilibrium dissociation constant of an inhibitor or competing ligand from its target.

The target of the first test is T1, Calcitonin gene-related peptide type 1 receptor (Homo sapiens, UniProt O60894+Q16602). The test is described as follows: Displacement of [125I]hCGRP from human cloned CGRP receptor expressed in HEK293 cells. It counts as cell-based. A general note: Displacement assays read how much labelled ligand stays bound in the presence of the test substance.
T1 sequence (Q16602 whole entry, one chain of several): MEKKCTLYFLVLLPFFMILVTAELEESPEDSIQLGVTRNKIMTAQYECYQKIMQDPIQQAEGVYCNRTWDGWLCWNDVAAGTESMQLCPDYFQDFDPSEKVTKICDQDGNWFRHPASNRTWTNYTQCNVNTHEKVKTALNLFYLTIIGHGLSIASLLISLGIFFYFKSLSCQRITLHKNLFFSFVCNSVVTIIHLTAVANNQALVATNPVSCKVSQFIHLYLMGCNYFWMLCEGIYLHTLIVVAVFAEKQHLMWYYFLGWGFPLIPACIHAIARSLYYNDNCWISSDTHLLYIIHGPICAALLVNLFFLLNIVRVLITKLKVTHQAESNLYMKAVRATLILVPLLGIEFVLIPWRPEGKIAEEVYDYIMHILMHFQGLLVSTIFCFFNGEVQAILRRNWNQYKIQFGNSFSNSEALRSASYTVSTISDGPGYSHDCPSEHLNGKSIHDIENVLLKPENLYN
As for `CC(C)(C)C(=O)N(Cc1cc(F)cc(F)c1)Cc1cnc2cc3c(cc2c1)C[C@@]1(C3)C(=O)Nc2ncccc21`, the Ki was 0.69 nM.

Take `C[C@H](c1cc(F)cc(F)c1)N(Cc1cnc2cc3c(cc2c1)C[C@@]1(C3)C(=O)Nc2ncccc21)C(=O)C(C)(C)C`: the inhibition constant Ki is 0.12 nM.

As to `CC(C)(C)C(=O)N(Cc1ccccc1)Cc1cnc2cc3c(cc2c1)C[C@@]1(C3)C(=O)Nc2ncccc21`, the inhibitory constant (Ki) was determined as 1.3 nM.

Take `C[C@H](c1ccccc1)N(Cc1cnc2cc3c(cc2c1)C[C@@]1(C3)C(=O)Nc2ncccc21)C(=O)C(C)(C)C`: the Ki was 0.1 nM.

With `CC(C)(C)C(=O)N(Cc1cnc2cc3c(cc2c1)C[C@@]1(C3)C(=O)Nc2ncccc21)C[C@@H]1CCc2ccccc21`, the inhibition constant Ki came out at 0.037 nM.

With `CC(C)(C)C(=O)N(Cc1cnc2nc3c(cc2c1)C[C@@]1(C3)C(=O)Nc2ncccc21)[C@@H]1CCc2ccccc21`, the Ki turned out to be 0.15 nM.

As for `CC(C)(C)C(=O)N(Cc1ccc2nc3c(cc2c1)C[C@@]1(C3)C(=O)Nc2ncccc21)[C@@H]1CCc2ccccc21`, the Ki is 0.11 nM.

Take `CC1(C)CC[C@@H](c2cc(F)cc(F)c2)N(Cc2cnc3cc4c(cc3c2)C[C@@]2(C4)C(=O)Nc3ncccc32)C1=O`: the inhibition constant (Ki) worked out at 0.3 nM.

For a further test, the target named is T1, Calcitonin gene-related peptide type 1 receptor. The test is described as follows: Binding affinity to human recombinant CGRP receptor.
Regarding `CN1C(=O)NC(=O)[C@]12Cc1cc3cc(CN(Cc4ccccc4)C(=O)C(C)(C)C)cnc3cc1C2`, the Ki worked out at 12 nM.

On to `CN1C(=O)NC(=O)C12Cc1cc3cc(CN(Cc4ccccc4)C(=O)C(C)(C)C)cnc3cc1C2` (stereo unspecified), for which the Ki amounted to 35 nM.

With `CN1C(=O)NC(=O)C12Cc1cc3ccc(CN(Cc4ccccc4)C(=O)C(C)(C)C)nc3cc1C2` (stereo unspecified), the inhibition constant Ki was found to be 2.2 nM.
